For this data set, the system named is CCRIS mutagenicity, Ames/micronucleus/aberration tests. In words: CCRIS mutagenicity studies.
[1] abbreviates: Test System: AMES SALMONELLA TYPHIMURIUM, Strain/Indicator: TA100, Metabolic Activation: NONE, Method: STANDARD PLATE.
Setting [2] is: Test System: AMES SALMONELLA TYPHIMURIUM, Strain/Indicator: TA100, Metabolic Activation: NONE, Method: PREINCUBATION
[3] abbreviates: Test System: AMES SALMONELLA TYPHIMURIUM, Strain/Indicator: TA1535, Metabolic Activation: NONE, Method: PREINCUBATION
[4] abbreviates: Test System: AMES SALMONELLA TYPHIMURIUM, Strain/Indicator: TA1537, Metabolic Activation: NONE, Method: PREINCUBATION
Setting [5] is: Test System: AMES SALMONELLA TYPHIMURIUM, Strain/Indicator: TA98, Metabolic Activation: NONE, Method: PREINCUBATION
The mark [6] stands for this setting: Test System: AMES SALMONELLA TYPHIMURIUM, Strain/Indicator: TA100, Metabolic Activation: RAT, LIVER, S-9, AROCLOR 1254, Method: STANDARD PLATE.
Where [7] appears, read: Test System: AMES SALMONELLA TYPHIMURIUM, Strain/Indicator: TA1535, Metabolic Activation: NONE, Method: STANDARD PLATE.
The mark [8] stands for this setting: Test System: AMES SALMONELLA TYPHIMURIUM, Strain/Indicator: TA1535, Metabolic Activation: RAT, LIVER, S-9, AROCLOR 1254, Method: STANDARD PLATE.
The mark [9] stands for this setting: Test System: UDS RAT HEPATOCYTES, Strain/Indicator: THY INCORP, Metabolic Activation: NONE.

Active and inactive are the calls of the source. The rule behind the calls is not given here.

With `CCCCCC[C@H]1C(=O)O[C@H](C)[C@H](NC(=O)c2cccc(NC=O)c2O)C(=O)O[C@@H](C)[C@@H]1OC(=O)CC(C)C`, the mutagenic call is “inactive; negative” (End Point: In vitro chromosomal aberrations, Test System: Chinese hamster lung (CHL/IU) cells, Metabolic Activation: None); “active; positive (structural aberrations)” (End Point: In vitro chromosomal aberrations, Test System: Chinese hamster lung (CHL/IU) cells, Metabolic Activation: Rat, Liver, S-9, Phenobarbital and 5,6-benzoflavone (16.7%)); “active; positive (structural changes and polyploidy)” (End Point: In vitro chromosomal aberrations, Test System: Chinese hamster ovary (CHO-WBL) cells, Metabolic Activation: Rat, Liver, S-9, Phenobarbital and 5,6-benzoflavone (5%)); “active; positive (polyploidy)” (End Point: In vitro chromosomal aberrations, Test System: Chinese hamster ovary (CHO-WBL) cells, Metabolic Activation: Rat, Liver, S-9, Phenobarbital and 5,6-benzoflavone (16.7%)); “inactive; negative” (Test System: MOUSE LYMPHOMA, Strain/Indicator: L5178Y (TK+/TK-), Metabolic Activation: NONE, Method: SUSPENSION/PLATE).

On to `c1cnc2c(c1)CCC1OC21` (centres undefined), for which the mutagenic call is “inactive; negative” under setting [1] and “inactive; negative” (Test System: AMES SALMONELLA TYPHIMURIUM, Strain/Indicator: TA100, Metabolic Activation: RAT, LIVER, S-9, AROCLOR 1254 (10 OR 20%), Method: STANDARD PLATE).

With `O=C(O)CBr`, the mutagenic call was “active; positive (structural changes)” (End Point: IN VITRO CHROMOSOMAL ABERRATIONS, Test System: CHL CELLS, Metabolic Activation: NONE); “active; positive (structural changes)” (End Point: IN VITRO CHROMOSOMAL ABERRATIONS, Test System: CHL CELLS, Metabolic Activation: RAT, LIVER, S-9, SODIUM PHENOBARBITAL AND 5,6-BENZOFLAVONE); “inactive; negative” (Test System: AMES SALMONELLA TYPHIMURIUM, Strain/Indicator: RSJ100, Metabolic Activation: NONE, Method: PREINCUBATION); “inactive; negative” (Test System: AMES SALMONELLA TYPHIMURIUM, Strain/Indicator: RSJ100, Metabolic Activation: RAT LIVER S-9, AROCLOR 1254, Method: PREINCUBATION); “active; positive” (Test System: AMES SALMONELLA TYPHIMURIUM, Strain/Indicator: TA98, Metabolic Activation: RAT LIVER S-9, AROCLOR 1254, Method: PREINCUBATION); “inactive; negative” (Test System: AMES SALMONELLA TYPHIMURIUM, Strain/Indicator: TA98, Metabolic Activation: RAT LIVER S-9, PHENOBARBITAL AND BETA-NAPHTHOFLAVONE, Method: PREINCUBATION). For the same compound, the mutagenic call reads like this: (Test System: AMES SALMONELLA TYPHIMURIUM, Strain/Indicator: TA100, Metabolic Activation: NONE, Method: FLUCTUATION TEST) “inactive; negative”; under setting [2], “active; positive”; (Test System: AMES SALMONELLA TYPHIMURIUM, Strain/Indicator: TA100, Metabolic Activation: RAT LIVER S-9, AROCLOR 1254, Method: PREINCUBATION) “active; positive”; (Test System: AMES SALMONELLA TYPHIMURIUM, Strain/Indicator: TA100, Metabolic Activation: RAT LIVER S-9, PHENOBARBITAL AND BETA-NAPHTHOFLAVONE, Method: PREINCUBATION) “inactive; negative”; (Test System: AMES SALMONELLA TYPHIMURIUM, Strain/Indicator: TA100, Metabolic Activation: RAT, LIVER, S-9, AROCLOR 1254, Method: FLUCTUATION TEST) “active; positive”; under setting [3], “inactive; negative”. The mutagenic call runs as follows: (Test System: AMES SALMONELLA TYPHIMURIUM, Strain/Indicator: TA1535, Metabolic Activation: RAT LIVER S-9, PHENOBARBITAL AND BETA-NAPHTHOFLAVONE, Method: PREINCUBATION) “inactive; negative”; under setting [4], “inactive; negative”; (Test System: AMES SALMONELLA TYPHIMURIUM, Strain/Indicator: TA1537, Metabolic Activation: RAT LIVER S-9, PHENOBARBITAL AND BETA-NAPHTHOFLAVONE, Method: PREINCUBATION) “inactive; negative”; (Test System: E.COLI, Strain/Indicator: WP2UVRA, Metabolic Activation: NONE, Method: PREINCUBATION) “inactive; negative”; (Test System: E.COLI, Strain/Indicator: WP2UVRA, Metabolic Activation: RAT LIVER S-9, PHENOBARBITAL AND BETA-NAPHTHOFLAVONE, Method: PREINCUBATION) “inactive; negative”.

On to `CCCCOC(=O)c1ccccc1C(=O)OC1CCCCC1`, for which the mutagenic call is “inactive; negative” (Test System: AMES SALMONELLA TYPHIMURIUM, Strain/Indicator: TA98, Metabolic Activation: HAMSTER, LIVER, S-9, AROCLOR 1254 (10%), Method: PREINCUBATION); “inactive; negative” under setting [5]; “inactive; negative” (Test System: AMES SALMONELLA TYPHIMURIUM, Strain/Indicator: TA98, Metabolic Activation: RAT, LIVER, S-9, AROCLOR 1254 (10%), Method: PREINCUBATION); “inactive; negative” (Test System: AMES SALMONELLA TYPHIMURIUM, Strain/Indicator: TA100, Metabolic Activation: HAMSTER, LIVER, S-9, AROCLOR 1254 (10%), Method: PREINCUBATION); “inactive; negative” under setting [2]; “inactive; negative” (Test System: AMES SALMONELLA TYPHIMURIUM, Strain/Indicator: TA100, Metabolic Activation: RAT, LIVER, S-9, AROCLOR 1254 (10%), Method: PREINCUBATION). Further, the mutagenic call (Test System: AMES SALMONELLA TYPHIMURIUM, Strain/Indicator: TA1535, Metabolic Activation: HAMSTER, LIVER, S-9, AROCLOR 1254 (10%), Method: PREINCUBATION) is “inactive; negative”; the mutagenic call under setting [3] was “inactive; negative”; the mutagenic call (Test System: AMES SALMONELLA TYPHIMURIUM, Strain/Indicator: TA1535, Metabolic Activation: RAT, LIVER, S-9, AROCLOR 1254 (10%), Method: PREINCUBATION) was “inactive; negative”; the mutagenic call (Test System: AMES SALMONELLA TYPHIMURIUM, Strain/Indicator: TA1537, Metabolic Activation: HAMSTER, LIVER, S-9, AROCLOR 1254 (10%), Method: PREINCUBATION) is “inactive; negative”; the mutagenic call under setting [4] was “inactive; negative”; the mutagenic call (Test System: AMES SALMONELLA TYPHIMURIUM, Strain/Indicator: TA1537, Metabolic Activation: RAT, LIVER, S-9, AROCLOR 1254 (10%), Method: PREINCUBATION) was “inactive; negative”.

On to `CC(c1ccccc1)N(C)C` (centres undefined), for which the mutagenic call was “inactive; negative” under setting [5]; “inactive; negative” (Test System: AMES SALMONELLA TYPHIMURIUM, Strain/Indicator: TA98, Metabolic Activation: RAT, LIVER, S-9, PCB, Method: PREINCUBATION); “inactive; negative” under setting [2]; “inactive; negative” (Test System: AMES SALMONELLA TYPHIMURIUM, Strain/Indicator: TA100, Metabolic Activation: RAT, LIVER, S-9, PCB, Method: PREINCUBATION).

As for `CC1(C)C2CC3OC3(C)C1C2` (centres undefined), the mutagenic call by setting is: under setting [1], “inactive; negative”; under setting [6], “inactive; negative”; under setting [7], “inactive; negative”; under setting [8], “inactive; negative”; under setting [9], “inactive; negative”.

Consider `C=Cc1ccncc1`, for which the mutagenic call reads like this: (Test System: AMES SALMONELLA TYPHIMURIUM, Strain/Indicator: TA98, Metabolic Activation: NONE, Method: STANDARD PLATE) “inactive; negative”; (Test System: AMES SALMONELLA TYPHIMURIUM, Strain/Indicator: TA98, Metabolic Activation: RAT, LIVER, S-9, AROCLOR 1254, Method: STANDARD PLATE) “inactive; negative”; under setting [1], “inactive; negative”; under setting [6], “inactive; negative”; under setting [7], “inactive; negative”; under setting [8], “inactive; negative”. In addition, the mutagenic call is, setting by setting: (Test System: AMES SALMONELLA TYPHIMURIUM, Strain/Indicator: TA1538, Metabolic Activation: NONE, Method: STANDARD PLATE) “inactive; negative”; (Test System: AMES SALMONELLA TYPHIMURIUM, Strain/Indicator: TA1538, Metabolic Activation: RAT, LIVER, S-9, AROCLOR 1254, Method: STANDARD PLATE) “inactive; negative”; under setting [9], “inactive; negative”.

The values above are taken from PubChem BioAssay AID1259407 (Chemical Carcinogenesis Research Information System (CCRIS), 2018).
